Data: US9096524B2, “Anthelmintic agents and their use” (Intervet International B.V., priority 2009, dated 2015)
Like-named read-outs stand apart in the source and are kept apart here.

What was measured:
[1] = tested on: Haemonchus contortus; assay: Efficacy against Haemonchus contortus in jirds; type: in vivo, jirds (Meriones unguiculatus); settings: 72 h, read-out: % Reduction in H.
Experimental: Anthelmintic effects of compounds of this invention were tested in vivo using Haemonchus contuortus in jirds (Meriones unguiculatus). The jirds were orally infected with approximately 750-3,000 third-stage larvae of Haemonchus contortus. Ten days after infection, the jirds in the treatment groups were treated once orally or subcutaneously at a dose of 2, 10, and/or 50 mg per kg bodyweight. Three days after treatment, the jirds were necropsied, and the larvae burden in the stomach is determined. The efficacy is defined as the reduction of the mean larvae count in the jirds of the treatment groups in comparison to the infected jirds in the untreated negative control group.

[2] = tested on: A. galli (intestinal roundworm of chicken) larval stage 3; O. dentatum (nodular worm of swine) larval stages 3 and 4; assay: Activity against Ascaridia galli and Oesophagostomum dentatum larvae in vitro (minimum effective concentration); type: cell-based
[3] = read-out: MEC (minimum effective concentration) against one or more of the tested nematodes, in vitro, one or more of A. galli L3, O. dentatum L3, L4, threshold 1 μM
[4] = read-out: MEC (minimum effective concentration) against one or more of the tested nematodes, in vitro, one or more of A. galli L3, O. dentatum L3, L4, threshold 7 μM
[5] = read-out: MEC (minimum effective concentration) against two or more of the tested nematodes, in vitro, two or more of A. galli L3, O. dentatum L3, L4, threshold 1 μM
[6] = jirds, 50 mg/kg, oral, single treatment, larvae burden in stomach 3 days after treatment
[7] = sc, jirds, 50 mg/kg, subcutaneous, single treatment, larvae burden in stomach 3 days after treatment
[8] = in vitro, two or more of A. galli L3, O. dentatum L3, L4, threshold 1 μM, read-out: MEC (minimum effective concentration) against two or more of the tested nematodes

SMILES: O=C(CCN1CCC(OCc2ccc(C(F)(F)F)cc2)CC1)N1CCC(Nc2ccc([N+](=O)[O-])c(C(F)(F)F)c2)CC1 [Example 57, 1-[4-(4-nitro-3-trifluoromethyl-phenylamino)-piperidin-1-yl]-3-[4-(4-trifluoromethyl-benzyloxy)-piperidin-1-yl]-propan-1-one]
- inhibition in vivo at 50 mg/kg ([1]; po): 85%
- inhibition in vivo at 50 mg/kg ([1]; sc): 84%
- minimal effective concentration [2, 3]: < 1 µM
- minimal effective concentration [2, 4]: < 7 µM
- minimal effective concentration [2, 5]: < 1 µM

SMILES: CC(C)(C)c1ccc(N2CCN(CCCC(=O)N3CCC(Nc4ccc(C#N)c(Cl)c4)CC3)CC2)cc1 [Example 322]
- inhibition in vivo at 50 mg/kg ([1]; po): 67%
- inhibition in vivo at 50 mg/kg ([1]; sc): 73%
- minimal effective concentration [2, 5]: < 1 µM

SMILES: CCOC(=O)c1ccc(NC2CCN(C(=O)CCN3CCN(c4ccc(C(C)(C)C)cc4)CC3)CC2)cc1 [Example 334]
- inhibition in vivo at 50 mg/kg [1, 6]: 78%
- inhibition in vivo at 50 mg/kg [1, 7]: 82%
- minimal effective concentration ([2]; in vitro, one or more of A. galli L3, O. dentatum L3, L4, threshold 1 μM, read-out: MEC (minimum effective concentration) against one or more of the tested nematodes): < 1 µM
- minimal effective concentration [2, 8]: < 1 µM

SMILES: O=C(CCN1CCN(c2ccc(OCc3ccccc3)cc2)CC1)N1CCC(Nc2ccc([N+](=O)[O-])c(C(F)(F)F)c2)CC1 [Example 23, 3-[4-(4-benzyloxy-phenyl)-piperazin-1-yl]-1-[4-(4-nitro-3-trifluoromethyl-phenylamino)-piperidin-1-yl]-propan-1-one]
- inhibition in vivo at 50 mg/kg ([1]; po): 66%
- inhibition in vivo at 50 mg/kg ([1]; sc): 92%
- minimal effective concentration [2, 3]: < 1 µM
- minimal effective concentration [2, 4]: < 7 µM
- minimal effective concentration [2, 5]: < 1 µM

SMILES: CSc1ccc(NC2CCN(C(=O)CCCN3CCN(c4ccc(C(F)(F)F)cc4)CC3)CC2)cc1C(F)(F)F [Example 5, 1-[4-(4-methylsulfanyl-3-trifluoromethyl-phenylamino)-piperidin-1-yl]-4-[4-(4-trifluoromethyl-phenyl)-piperazin-1-yl]-butan-1-one]
- inhibition in vivo at 50 mg/kg ([1]; po): 87%
- inhibition in vivo at 50 mg/kg ([1]; sc): 99%
- minimal effective concentration [2, 3]: < 1 µM
- minimal effective concentration [2, 4]: < 7 µM
- minimal effective concentration [2, 5]: < 1 µM

SMILES: O=C(CCCC1CCN(c2ccc(C(F)(F)F)cc2)CC1)N1CCC(Nc2ccc([N+](=O)[O-])c(C(F)(F)F)c2)CC1 [Example 134, 1-[4-(4-nitro-3-trifluoromethyl-phenylamino)-piperidin-1-yl]-4-[1-(4-trifluoromethyl-phenyl)-piperidin-4-yl]-butan-1-one]
- inhibition in vivo at 10 mg/kg ([1]; po): 99%
- inhibition in vivo at 10 mg/kg ([1]; sc): 99%
- minimal effective concentration [2, 3]: < 1 µM
- minimal effective concentration [2, 4]: < 7 µM
- minimal effective concentration [2, 5]: < 1 µM

SMILES: CC(C)(C)c1ccc(N2CCN(CCC(=O)N3CCC(Nc4ccc(C#N)c(C(F)(F)F)c4)CC3)CC2)cc1 [Example 324]
- inhibition in vivo at 50 mg/kg ([1]; po): 89%
- inhibition in vivo at 50 mg/kg ([1]; sc): 90%
- minimal effective concentration [2, 5]: < 1 µM

SMILES: O=C(CCCN1CCN(c2ccc(C(F)(F)F)cc2)CC1)N1CCC(Nc2ccc(OC(F)(F)F)cc2)CC1 [Example 54, 1-[4-(4-trifluoromethoxy-phenylamino)-piperidin-1-yl]-4-[4-(4-trifluoromethyl-phenyl)-piperazin-1-yl]-butan-1-one]
- inhibition in vivo at 50 mg/kg ([1]; po): 95%
- inhibition in vivo at 50 mg/kg ([1]; sc): 58%
- minimal effective concentration [2, 3]: < 1 µM
- minimal effective concentration [2, 4]: < 7 µM
- minimal effective concentration [2, 5]: < 1 µM

SMILES: COc1cc(NC2CCN(C(=O)CCN3CCN(c4ccc(OCc5ccc(C(F)(F)F)cc5)cc4)CC3)CC2)ccc1[N+](=O)[O-] [Example 40, 1-[4-(3-methoxy-4-nitro-phenylamino)-piperidin-1-yl]-3-{4-[4-(4-trifluoromethyl-benzyloxy)-phenyl]-piperazin-1-yl}-propan-1-one]
- inhibition in vivo at 50 mg/kg ([1]; po): 0%
- inhibition in vivo at 50 mg/kg ([1]; sc): 74%
- minimal effective concentration [2, 3]: < 1 µM
- minimal effective concentration [2, 4]: < 7 µM
- minimal effective concentration [2, 5]: < 1 µM

SMILES: CN(C)S(=O)(=O)c1ccc(NC2CCN(C(=O)CCN3CCN(c4ccc(C(C)(C)C)cc4)CC3)CC2)cc1C(F)(F)F [Example 345]
- inhibition in vivo at 50 mg/kg [1, 6]: 76%
- inhibition in vivo at 50 mg/kg [1, 7]: 61%
- minimal effective concentration [2, 8]: < 1 µM
